Data: ChEMBL document CHEMBL1143427, “Interactions of ceftobiprole with beta-lactamases from molecular classes A to D” (Antimicrob Agents Chemother, 2007)

Legend:
[1] = biological target: Beta-lactamase (Serratia marcescens) (UniProt P18539); assay: Activity of Serratia marcescens AmpC assessed as drug hydrolysis by spectrophotometry relative to cephaloridine; design: scale not given: the % may be the effect or the level left
[2] = biological target: Beta-lactamase (Morganella morganii) (UniProt P94958); assay: Ratio of Kcat to Km of Morganella morganii AmpC assessed as drug hydrolysis by spectrophotometry relative to cephaloridine; design: scale not given: the % may be the effect or the level left
[3] = biological target: Beta-lactamase (Morganella morganii) (UniProt P94958); assay: Activity of Morganella morganii AmpC assessed as drug hydrolysis by spectrophotometry relative to cephaloridine; design: scale not given: the % may be the effect or the level left
[4] = biological target: Beta-lactamase (Pseudomonas aeruginosa (strain ATCC 15692 / PAO1 / 1C / PRS 101 / LMG12228)) (UniProt P24735); assay: Activity of Pseudomonas aeruginosa 4352 AmpC assessed as drug hydrolysis by spectrophotometry relative to cephaloridine; design: scale not given: the % may be the effect or the level left
[5] = biological target: Beta-lactamase (Pseudomonas aeruginosa (strain ATCC 15692 / PAO1 / 1C / PRS 101 / LMG12228)) (UniProt P24735); assay: Ratio of Kcat to Km of Pseudomonas aeruginosa 4352 AmpC assessed as drug hydrolysis by spectrophotometry relative to cephaloridine; design: scale not given: the % may be the effect or the level left
[6] = biological target: Beta-lactamase (Serratia marcescens) (UniProt P18539); assay: Ratio of Kcat to Km of Serratia marcescens AmpC assessed as drug hydrolysis by spectrophotometry relative to cephaloridine; design: scale not given: the % may be the effect or the level left
[7] = biological target: T1, Beta-lactamase SHV-1 (Klebsiella pneumoniae) (UniProt P0AD64); assay: Ratio of Kcat to Km of Klebsiella pneumoniae SHV1 assessed as drug hydrolysis by spectrophotometry relative to cephaloridine; design: scale not given: the % may be the effect or the level left
T1 sequence (whole entry): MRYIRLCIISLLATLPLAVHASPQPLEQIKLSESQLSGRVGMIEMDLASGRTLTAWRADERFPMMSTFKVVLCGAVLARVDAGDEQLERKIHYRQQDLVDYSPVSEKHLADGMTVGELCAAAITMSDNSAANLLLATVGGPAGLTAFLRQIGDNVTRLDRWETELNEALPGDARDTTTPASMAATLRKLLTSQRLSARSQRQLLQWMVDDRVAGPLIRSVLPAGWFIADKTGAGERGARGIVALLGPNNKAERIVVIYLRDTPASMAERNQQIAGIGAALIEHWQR

[8] = biological target: T1, Beta-lactamase SHV-1 (Klebsiella pneumoniae); assay: Activity of Klebsiella pneumoniae SHV1 assessed as drug hydrolysis by spectrophotometry relative to cephaloridine; design: scale not given: the % may be the effect or the level left
[9] = tested on: Klebsiella pneumoniae; assay: Ratio of Kcat to Km of Klebsiella pneumoniae TEM26 assessed as drug hydrolysis by spectrophotometry
[10] = biological target: T2, Carbapenem-hydrolyzing beta-lactamase SME-3 (Serratia marcescens) (UniProt Q6PRG8); assay: Activity of Serratia marcescens SME3 assessed as drug hydrolysis by spectrophotometry relative to cephaloridine; design: scale not given: the % may be the effect or the level left
T2 sequence (whole entry): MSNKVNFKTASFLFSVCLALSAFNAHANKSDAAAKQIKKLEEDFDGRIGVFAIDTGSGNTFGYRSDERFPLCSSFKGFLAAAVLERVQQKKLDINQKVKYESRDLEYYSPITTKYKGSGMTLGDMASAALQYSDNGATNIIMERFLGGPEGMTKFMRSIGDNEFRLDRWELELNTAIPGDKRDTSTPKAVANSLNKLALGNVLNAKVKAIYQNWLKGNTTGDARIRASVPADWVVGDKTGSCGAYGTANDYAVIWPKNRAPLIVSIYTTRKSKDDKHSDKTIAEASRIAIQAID

[11] = biological target: Beta-lactamase TEM (Escherichia coli) (UniProt P62593); assay: Ratio of Kcat to Km of Escherichia coli TEM1 assessed as drug hydrolysis by spectrophotometry relative to cephaloridine; design: scale not given: the % may be the effect or the level left
[12] = biological target: Beta-lactamase (Pseudomonas aeruginosa (strain ATCC 15692 / PAO1 / 1C / PRS 101 / LMG12228)) (UniProt P24735); assay: Ratio of Kcat to Km of Pseudomonas aeruginosa 18SH AmpC assessed as drug hydrolysis by spectrophotometry relative to cephaloridine; design: scale not given: the % may be the effect or the level left
[13] = biological target: T2, Carbapenem-hydrolyzing beta-lactamase SME-3 (Serratia marcescens); assay: Ratio of Kcat to Km of Serratia marcescens SME3 assessed as drug hydrolysis by spectrophotometry relative to cephaloridine; design: scale not given: the % may be the effect or the level left
[14] = biological target: Beta-lactamase TEM (Escherichia coli) (UniProt P62593); assay: Activity of Escherichia coli TEM1 assessed as drug hydrolysis by spectrophotometry relative to cephaloridine; design: scale not given: the % may be the effect or the level left
[15] = biological target: Beta-lactamase (Pseudomonas aeruginosa (strain ATCC 15692 / PAO1 / 1C / PRS 101 / LMG12228)) (UniProt P24735); assay: Ratio of Kcat to Km of Pseudomonas aeruginosa MK-1184 AmpC assessed as drug hydrolysis by spectrophotometry relative to cephaloridine; design: scale not given: the % may be the effect or the level left
[16] = biological target: Metallo beta-lactamase (Pseudomonas aeruginosa) (UniProt Q6TUJ4); assay: Ratio of Kcat to Km of Pseudomonas aeruginosa IMP1 assessed as drug hydrolysis by spectrophotometry relative to cephaloridine; design: scale not given: the % may be the effect or the level left
[17] = tested on: Klebsiella pneumoniae; assay: Activity of Klebsiella pneumoniae TEM26 assessed as drug hydrolysis by spectrophotometry
[18] = biological target: T3, Beta-lactamase (Providencia stuartii) (UniProt O69773); assay: Activity of Providencia stuartii AmpC assessed as drug hydrolysis by spectrophotometry relative to cephaloridine; design: scale not given: the % may be the effect or the level left
T3 sequence (whole entry): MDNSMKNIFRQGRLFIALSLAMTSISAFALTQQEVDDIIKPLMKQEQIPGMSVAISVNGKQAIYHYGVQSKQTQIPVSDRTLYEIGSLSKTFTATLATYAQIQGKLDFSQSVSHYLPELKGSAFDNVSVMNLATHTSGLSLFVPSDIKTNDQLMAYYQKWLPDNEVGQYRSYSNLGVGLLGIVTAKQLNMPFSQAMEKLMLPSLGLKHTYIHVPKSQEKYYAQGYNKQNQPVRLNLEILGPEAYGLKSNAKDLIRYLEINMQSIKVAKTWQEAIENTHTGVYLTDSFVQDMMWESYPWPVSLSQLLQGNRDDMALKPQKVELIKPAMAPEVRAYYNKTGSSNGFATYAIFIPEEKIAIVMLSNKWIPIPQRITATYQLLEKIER

[19] = biological target: Beta-lactamase (Staphylococcus aureus) (UniProt P00807); assay: Activity of Staphylococcus aureus betalactamase PC1 assessed as drug hydrolysis by spectrophotometry relative to cephaloridine; design: scale not given: the % may be the effect or the level left
[20] = biological target: Beta-lactamase (Staphylococcus aureus) (UniProt P00807); assay: Ratio of Kcat to Km of Staphylococcus aureus betalactamase PC1 assessed as drug hydrolysis by spectrophotometry relative to cephaloridine; design: scale not given: the % may be the effect or the level left
[21] = biological target: Beta-lactamase (Pseudomonas aeruginosa (strain ATCC 15692 / PAO1 / 1C / PRS 101 / LMG12228)) (UniProt P24735); assay: Activity of Pseudomonas aeruginosa MK-1184 AmpC assessed as drug hydrolysis by spectrophotometry relative to cephaloridine; design: scale not given: the % may be the effect or the level left
[22] = biological target: T3, Beta-lactamase (Providencia stuartii); assay: Ratio of Kcat to Km of Providencia stuartii AmpC assessed as drug hydrolysis by spectrophotometry relative to cephaloridine; design: scale not given: the % may be the effect or the level left
[23] = biological target: T4, Beta-lactamase (Klebsiella oxytoca) (UniProt Q8RT60); assay: Activity of Klebsiella oxytoca beta-lactamase K1 assessed as drug hydrolysis by spectrophotometry relative to cephaloridine; design: scale not given: the % may be the effect or the level left
T4 sequence (whole entry): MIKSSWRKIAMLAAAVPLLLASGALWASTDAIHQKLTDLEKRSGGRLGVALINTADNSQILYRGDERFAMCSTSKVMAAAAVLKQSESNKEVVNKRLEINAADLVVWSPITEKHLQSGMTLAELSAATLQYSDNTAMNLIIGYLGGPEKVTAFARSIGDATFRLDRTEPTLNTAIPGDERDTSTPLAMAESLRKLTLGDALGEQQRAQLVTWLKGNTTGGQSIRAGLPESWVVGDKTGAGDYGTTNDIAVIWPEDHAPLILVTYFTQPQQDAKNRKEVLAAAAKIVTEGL

[24] = tested on: Klebsiella pneumoniae; assay: Activity of Klebsiella pneumoniae TEM26 assessed as drug hydrolysis by spectrophotometry relative to cephaloridine; design: scale not given: the % may be the effect or the level left
[25] = biological target: Beta-lactamase VIM-2 (Pseudomonas aeruginosa) (UniProt Q9K2N0); assay: Activity of Pseudomonas aeruginosa VIM2 assessed as drug hydrolysis by spectrophotometry relative to cephaloridine; design: scale not given: the % may be the effect or the level left
[26] = biological target: Beta-lactamase CTX-M (Escherichia coli) (UniProt Q9EXV5); assay: Activity of Escherichia coli CTX-M-15 assessed as drug hydrolysis by spectrophotometry relative to cephaloridine; design: scale not given: the % may be the effect or the level left
[27] = biological target: Beta-lactamase (Pseudomonas aeruginosa (strain ATCC 15692 / PAO1 / 1C / PRS 101 / LMG12228)) (UniProt P24735); assay: Activity of Pseudomonas aeruginosa 18SH AmpC assessed as drug hydrolysis by spectrophotometry relative to cephaloridine; design: scale not given: the % may be the effect or the level left
[28] = biological target: Beta-lactamase VIM-2 (Pseudomonas aeruginosa) (UniProt Q9K2N0); assay: Ratio of Kcat to Km of Pseudomonas aeruginosa VIM2 assessed as drug hydrolysis by spectrophotometry relative to cephaloridine; design: scale not given: the % may be the effect or the level left
[29] = tested on: Klebsiella pneumoniae; assay: Ratio of Kcat to Km of Klebsiella pneumoniae TEM26 assessed as drug hydrolysis by spectrophotometry relative to cephaloridine; design: scale not given: the % may be the effect or the level left
[30] = biological target: Beta-lactamase (Pseudomonas aeruginosa (strain ATCC 15692 / PAO1 / 1C / PRS 101 / LMG12228)) (UniProt P24735); assay: Activity of Pseudomonas aeruginosa AmpC assessed as drug hydrolysis by spectrophotometry relative to cephaloridine; design: scale not given: the % may be the effect or the level left
[31] = biological target: T4, Beta-lactamase (Klebsiella oxytoca); assay: Ratio of Kcat to Km of Klebsiella oxytoca beta-lactamase K1 assessed as drug hydrolysis by spectrophotometry relative to cephaloridine; design: scale not given: the % may be the effect or the level left
[32] = biological target: Beta-lactamase CTX-M (Escherichia coli) (UniProt Q9EXV5); assay: Ratio of Kcat to Km of Escherichia coli CTX-M-15 assessed as drug hydrolysis by spectrophotometry relative to cephaloridine; design: scale not given: the % may be the effect or the level left

Sequence of Beta-lactamase (Serratia marcescens) (P18539 whole entry): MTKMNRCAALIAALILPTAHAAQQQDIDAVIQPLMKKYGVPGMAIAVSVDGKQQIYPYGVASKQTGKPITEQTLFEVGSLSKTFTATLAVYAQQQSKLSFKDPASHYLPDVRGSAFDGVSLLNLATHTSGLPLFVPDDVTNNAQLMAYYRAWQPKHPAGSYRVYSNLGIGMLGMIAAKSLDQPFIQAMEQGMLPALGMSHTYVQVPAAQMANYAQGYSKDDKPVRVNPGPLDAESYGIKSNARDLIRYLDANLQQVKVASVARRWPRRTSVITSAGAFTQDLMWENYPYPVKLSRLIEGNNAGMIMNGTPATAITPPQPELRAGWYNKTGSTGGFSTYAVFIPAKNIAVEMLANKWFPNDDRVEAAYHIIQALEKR
Sequence of Beta-lactamase (Pseudomonas aeruginosa (strain ATCC 15692 / PAO1 / 1C / PRS 101 / LMG12228)) (P24735 27-397 limits assumed): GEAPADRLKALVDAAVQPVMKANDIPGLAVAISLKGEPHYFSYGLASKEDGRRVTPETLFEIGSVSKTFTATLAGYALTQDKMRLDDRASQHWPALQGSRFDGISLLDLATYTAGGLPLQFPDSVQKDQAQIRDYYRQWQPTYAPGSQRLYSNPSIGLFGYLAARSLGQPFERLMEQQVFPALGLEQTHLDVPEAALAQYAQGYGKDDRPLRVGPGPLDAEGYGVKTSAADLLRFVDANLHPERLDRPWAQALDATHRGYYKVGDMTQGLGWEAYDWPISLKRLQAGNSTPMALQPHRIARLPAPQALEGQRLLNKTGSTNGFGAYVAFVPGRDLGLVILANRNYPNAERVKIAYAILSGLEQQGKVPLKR
Sequence of Beta-lactamase TEM (Escherichia coli) (P62593 whole entry): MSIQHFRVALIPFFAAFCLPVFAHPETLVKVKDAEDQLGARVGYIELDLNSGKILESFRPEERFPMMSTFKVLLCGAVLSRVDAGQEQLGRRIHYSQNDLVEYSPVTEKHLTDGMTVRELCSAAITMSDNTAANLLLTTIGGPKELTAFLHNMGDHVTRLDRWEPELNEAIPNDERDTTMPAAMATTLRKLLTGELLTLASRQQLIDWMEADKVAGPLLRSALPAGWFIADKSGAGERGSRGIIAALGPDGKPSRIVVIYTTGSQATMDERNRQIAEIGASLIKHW
Sequence of Beta-lactamase (Staphylococcus aureus) (P00807 whole entry): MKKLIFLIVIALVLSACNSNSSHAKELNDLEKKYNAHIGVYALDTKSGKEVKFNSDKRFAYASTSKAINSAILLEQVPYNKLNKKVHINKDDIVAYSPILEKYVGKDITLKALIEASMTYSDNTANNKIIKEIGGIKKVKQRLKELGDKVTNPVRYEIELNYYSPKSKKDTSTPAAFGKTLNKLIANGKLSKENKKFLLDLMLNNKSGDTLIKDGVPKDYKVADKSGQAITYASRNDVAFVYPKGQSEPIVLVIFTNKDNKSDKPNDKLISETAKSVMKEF
Sequence of Metallo beta-lactamase (Pseudomonas aeruginosa) (Q6TUJ4 as listed by the source): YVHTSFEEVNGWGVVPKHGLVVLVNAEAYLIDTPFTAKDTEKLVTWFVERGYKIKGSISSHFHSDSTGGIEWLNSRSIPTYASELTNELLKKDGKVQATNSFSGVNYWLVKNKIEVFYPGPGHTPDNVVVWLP

O=C(Cc1cccs1)N[C@@H]1C(=O)N2C(C(=O)O)=C(/C=C/c3ccc([N+](=O)[O-])cc3[N+](=O)[O-])CS[C@H]12
Activity [1]: 42% | Activity [2]: 1400% | Activity [3]: 160% | Activity [4]: 68% | Activity [5]: 1800% | Activity [6]: 19%

CC(C)(O/N=C(\C(=O)N[C@@H]1C(=O)N2C(C(=O)[O-])=C(C[n+]3ccccc3)CS[C@H]12)c1csc(N)n1)C(=O)O
Activity [7]: 0.00084% | Activity [1]: < 0.0025% | Activity [8]: 0.0026% | kcat/Km [9]: 730000 M⁻¹ s⁻¹ | Activity [10]: 0.013% | Activity [11]: 0.00067% | Activity [12]: 0.83% | Activity [2]: < 2.5% | Activity [13]: 0.031% | Activity [14]: 0.00023% | Activity [3]: < 0.14% | Activity [15]: 5.3% | Activity [4]: < 0.01% | Activity [16]: 120% | Km [17]: 130 µM | kcat [17]: 95 s⁻¹ | Activity [18]: 0.036% | Activity [19]: 0.25% | Activity [20]: 0.92% | Activity [21]: 3.1% | Activity [22]: 1.3% | Activity [23]: 0.0026% | Activity [24]: 260% | Activity [25]: 0.19% | Activity [26]: 2.3% | Activity [5]: 0.42% | Activity [27]: < 0.1% | Activity [28]: 1.7% | Activity [29]: 130% | Activity [30]: < 0.059% | Activity [31]: 0.0018% | Activity [6]: < 0.0028% | Activity [32]: 0.37%

O=C(Cc1cccs1)N[C@@H]1C(=O)N2C(C(=O)[O-])=C(C[n+]3ccccc3)CS[C@H]12
kcat/Km [9]: 560000 M⁻¹ s⁻¹ | Km [17]: 66 µM | kcat [17]: 37 s⁻¹
